Experimental data: ChEMBL document CHEMBL1177690, “Target-specific control of lymphoid-specific protein tyrosine phosphatase (Lyp) activity” (Bioorg Med Chem, 2010)

Key:
[1] = target: T1, Tyrosine-protein phosphatase non-receptor type 22 (Homo sapiens) (UniProt Q9Y2R2); assay: Inhibition of Lyp expressed in Escherichia coli […]
T1 sequence (whole entry): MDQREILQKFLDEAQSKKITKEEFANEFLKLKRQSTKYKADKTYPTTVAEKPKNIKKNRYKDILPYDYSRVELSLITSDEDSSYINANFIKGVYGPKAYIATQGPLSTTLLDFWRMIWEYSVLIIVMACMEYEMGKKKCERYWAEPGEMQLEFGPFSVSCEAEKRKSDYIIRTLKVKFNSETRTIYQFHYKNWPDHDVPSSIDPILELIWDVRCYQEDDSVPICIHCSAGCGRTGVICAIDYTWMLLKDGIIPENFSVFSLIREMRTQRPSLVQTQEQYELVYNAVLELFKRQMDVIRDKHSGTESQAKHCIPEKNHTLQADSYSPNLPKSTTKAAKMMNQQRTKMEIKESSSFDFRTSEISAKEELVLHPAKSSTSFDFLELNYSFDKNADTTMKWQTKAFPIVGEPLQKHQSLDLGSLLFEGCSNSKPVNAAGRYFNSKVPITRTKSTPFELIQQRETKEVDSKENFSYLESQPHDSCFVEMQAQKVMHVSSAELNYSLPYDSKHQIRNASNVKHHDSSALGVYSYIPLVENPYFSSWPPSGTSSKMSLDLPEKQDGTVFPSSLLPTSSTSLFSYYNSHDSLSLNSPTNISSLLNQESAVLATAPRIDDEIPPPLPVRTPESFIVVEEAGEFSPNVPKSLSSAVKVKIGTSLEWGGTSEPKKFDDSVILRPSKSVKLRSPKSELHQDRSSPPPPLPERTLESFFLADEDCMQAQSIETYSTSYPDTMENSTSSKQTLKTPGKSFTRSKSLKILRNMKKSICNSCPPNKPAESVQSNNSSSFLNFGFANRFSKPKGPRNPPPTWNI

[2] = Activity at Lyp CCPGCC mutant expressed in Escherichia coli using pNPP as a substrate […]

Question: Which Activity [1] does the source give for `O=C(O)c1ccccc1-c1c2ccc(=O)c([As]3SCCS3)c-2oc2c([As]3SCCS3)c(O)ccc12` here?
Answer: The Activity was “Dose-dependent effect”.

Question: And the kcat [2]?
Answer: The kcat was 0.057 s⁻¹.
